Laboratory results from patent US20230278995A1, “1,3,4-OXADIAZOLE DERIVATIVE COMPOUNDS AS HISTONE DEACETYLASE 6 INHIBITOR, AND THE PHARMACEUTICAL COMPOSITION COMPRISING THE SAME” (CHONG KUN DANG PHARMACEUTICAL CORP., priority 2020, published 2023).

What was measured:
human recombinant HDAC1 = target: T1, human recombinant HDAC1 (Homo sapiens, UniProt Q13547); experiment: HDAC enzyme activity inhibition assay (HDAC Fluorimetric Drug Discovery Kit), HDAC1; format: biochemical; settings: human recombinant HDAC1, Fluor de Lys-SIRT1 substrate, 30° C. 60 minutes
T1 construct: purchased Enzo Life Sciences, Inc. BML-SE456
Protocol: (§1) For the HDAC1 enzyme activity test, human recombinant HDAC1 (BML-SE456) was used as an enzyme source and Fluor de Lys©-SIRT1 (BNL-K1177) was used as a substrate. After dispensing 5-fold diluted compounds into a 96-well plate, 0.3 μg of enzyme and 10 μM substrate were added to each well of the plate and allowed to react at 30° C. for 60 minutes. Next, Fluor de Lys© Developer II (BML-K1176) was added and reacted for 30 minutes to complete the reaction, and then the fluorescence values (Ex 360, Em 460) were measured using a multi-plate reader (Flexstation 3, Molecular Device). The HDAC6 enzymes were tested using human recombinant HDAC6 (382180) from Calbiochem Inc., according to the same protocol as the HDAC1 enzyme activity test method. With respect to the final result values, respective IC50 values were calculated using GraphPad Prism 4.0 program (Table 2).

human recombinant HDAC6 = target: T2, human recombinant HDAC6 (Homo sapiens, UniProt Q9UBN7); experiment: HDAC enzyme activity inhibition assay (HDAC Fluorimetric Drug Discovery Kit), HDAC6; format: biochemical; settings: for HDAC6 selectivity (fold): HDAC1 vs HDAC6; for IC50: human recombinant HDAC6, same protocol as HDAC1
T2 construct: purchased Calbiochem Inc. 382180
T2 sequence (Q9UBN7 1-1215): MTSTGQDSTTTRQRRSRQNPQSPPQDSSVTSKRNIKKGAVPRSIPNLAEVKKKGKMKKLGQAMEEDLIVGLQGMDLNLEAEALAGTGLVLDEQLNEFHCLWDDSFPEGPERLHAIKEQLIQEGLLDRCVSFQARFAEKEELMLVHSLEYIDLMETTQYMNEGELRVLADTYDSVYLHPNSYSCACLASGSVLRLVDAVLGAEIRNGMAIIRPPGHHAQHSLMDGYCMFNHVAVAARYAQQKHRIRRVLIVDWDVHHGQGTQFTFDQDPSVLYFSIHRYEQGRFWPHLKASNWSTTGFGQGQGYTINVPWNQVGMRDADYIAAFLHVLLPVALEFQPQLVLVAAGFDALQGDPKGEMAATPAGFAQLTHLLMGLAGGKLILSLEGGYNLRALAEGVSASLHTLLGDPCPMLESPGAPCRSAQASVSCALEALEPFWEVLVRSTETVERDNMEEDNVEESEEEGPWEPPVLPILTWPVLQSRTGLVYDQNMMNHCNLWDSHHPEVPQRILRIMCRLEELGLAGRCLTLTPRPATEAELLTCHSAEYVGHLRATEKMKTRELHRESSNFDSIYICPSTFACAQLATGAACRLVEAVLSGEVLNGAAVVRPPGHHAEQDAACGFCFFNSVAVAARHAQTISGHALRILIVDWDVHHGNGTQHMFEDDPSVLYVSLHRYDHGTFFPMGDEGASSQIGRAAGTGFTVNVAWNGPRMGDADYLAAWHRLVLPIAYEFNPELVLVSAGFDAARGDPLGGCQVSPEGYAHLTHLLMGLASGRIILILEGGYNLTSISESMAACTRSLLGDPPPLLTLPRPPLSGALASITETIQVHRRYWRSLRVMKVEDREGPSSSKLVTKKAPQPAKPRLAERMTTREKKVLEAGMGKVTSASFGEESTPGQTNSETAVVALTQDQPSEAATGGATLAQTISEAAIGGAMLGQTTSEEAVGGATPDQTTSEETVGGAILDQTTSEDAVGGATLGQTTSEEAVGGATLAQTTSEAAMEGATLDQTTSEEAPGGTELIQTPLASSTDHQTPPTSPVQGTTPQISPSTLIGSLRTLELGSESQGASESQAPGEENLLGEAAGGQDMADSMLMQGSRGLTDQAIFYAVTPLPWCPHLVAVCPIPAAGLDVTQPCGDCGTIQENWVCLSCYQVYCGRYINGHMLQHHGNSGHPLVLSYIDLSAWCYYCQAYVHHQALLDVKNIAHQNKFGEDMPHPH
Protocol: as §1

T1 sequence (Q13547 whole entry): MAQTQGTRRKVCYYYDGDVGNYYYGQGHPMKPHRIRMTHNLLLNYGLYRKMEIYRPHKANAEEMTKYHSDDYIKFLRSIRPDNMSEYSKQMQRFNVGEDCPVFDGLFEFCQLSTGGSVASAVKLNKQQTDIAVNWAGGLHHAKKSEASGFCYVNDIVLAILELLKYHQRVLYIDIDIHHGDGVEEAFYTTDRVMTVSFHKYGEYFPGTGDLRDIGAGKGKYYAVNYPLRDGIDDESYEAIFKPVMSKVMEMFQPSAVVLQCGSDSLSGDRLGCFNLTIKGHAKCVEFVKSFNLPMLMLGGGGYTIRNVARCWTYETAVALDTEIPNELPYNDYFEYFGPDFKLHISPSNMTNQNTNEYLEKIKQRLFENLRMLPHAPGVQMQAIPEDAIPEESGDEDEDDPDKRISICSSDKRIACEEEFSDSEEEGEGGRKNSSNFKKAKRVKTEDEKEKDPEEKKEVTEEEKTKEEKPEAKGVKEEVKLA

SMILES | IC50 (human recombinant HDAC1) | HDAC6 selectivity (fold) (human recombinant HDAC6) | IC50 (human recombinant HDAC6)
CN1CCC(F)(C(=O)N(Cc2ccc(-c3nnc(C(F)F)o3)cn2)c2cccc(F)c2)CC1 [Compound 2969, N-((5-(5-(difluoromethyl)-1,3,4-oxadiazol-2-yl)pyridin-2-yl)methyl)-4-fluoro-N-(3-fluorophenyl)-1-methylpiperidine-4-carboxamide] | > 50000 nM | 1,298 fold | 38.5 nM
CC(C)N1CCC(F)(C(=O)N(Cc2ccc(-c3nnc(C(F)F)o3)cn2)c2cccc(F)c2)CC1 [Compound 2970, N-((5-(5-(difluoromethyl)-1,3,4-oxadiazol-2-yl)pyridin-2-yl)methyl)-4-fluoro-N-(3-fluorophenyl)-1-isopropylpiperidine-4-carboxamide] | > 50000 nM | 1,046 fold | 47.8 nM
O=C(N(Cc1ccc(-c2nnc(C(F)F)o2)cn1)c1cccc(F)c1)C1(F)CCN(C2CCC2)CC1 [Compound 2971, 1-cyclobutyl-N-((5-(5-(difluoromethyl)-1,3,4-oxadiazol-2-yl)pyridin-2-yl)methyl)-4-fluoro-N-(3-fluorophenyl)piperidine-4-carboxamide] | > 50000 nM | 740 fold | 67.5 nM
O=C(N(Cc1ccc(-c2nnc(C(F)F)o2)cn1)c1cccc(F)c1)C1(F)CCN(C2COC2)CC1 [Compound 2972, N-((5-(5-(difluoromethyl)-1,3,4-oxadiazol-2-yl)pyridin-2-yl)methyl)-4-fluoro-N-(3-fluorophenyl)-1-(oxetan-3-yl)piperidine-4-carboxamide] | > 50000 nM | 1,190 fold | 42 nM
CN1CC(F)(C(=O)N(Cc2ccc(-c3nnc(C(F)F)o3)cn2)c2ccccc2)C1 [Compound 2973, N-((5-(5-(difluoromethyl)-1,3,4-oxadiazol-2-yl)pyridin-2-yl)methyl)-3-fluoro-1-methyl-N-phenylazetidine-3-carboxamide] | > 50000 nM | 1,075 fold | 46.5 nM
CC(C)N1CC(F)(C(=O)N(Cc2ccc(-c3nnc(C(F)F)o3)cn2)c2ccccc2)C1 [Compound 2974, N-((5-(5-(difluoromethyl)-1,3,4-oxadiazol-2-yl)pyridin-2-yl)methyl)-3-fluoro-1-isopropyl-N-phenylazetidine-3-carboxamide] | > 50000 nM | 1,054 fold | 47.4 nM
O=C(N(Cc1ccc(-c2nnc(C(F)F)o2)cn1)c1ccccc1)C1(F)CN(C2CCC2)C1 [Compound 2975, 1-cyclobutyl-N-((5-(5-(difluoromethyl)-1,3,4-oxadiazol-2-yl)pyridin-2-yl)methyl)-3-fluoro-N-phenylazetidine-3-carboxamide] | > 50000 nM | 1,022 fold | 48.9 nM
O=C(N(Cc1ccc(-c2nnc(C(F)F)o2)cn1)c1ccccc1)C1(F)CCN(C2CC3(COC3)C2)CC1 [Compound 2995, N-((5-(5-(difluoromethyl)-1,3,4-oxadiazol-2-yl)pyridin-2-yl)methyl)-4-fluoro-N-phenyl-1-(2-oxaspiro[3.3]heptan-6-yl)piperidine-4-carboxamide] | > 50000 nM | 600 fold | 83.3 nM
O=C(N(Cc1ccc(-c2nnc(C(F)F)o2)cn1)c1ccccc1)C1(F)CCN(C2CCCC2)CC1 [Compound 2996, 1-cyclopentyl-N-((5-(5-(difluoromethyl)-1,3,4-oxadiazol-2-yl)pyridin-2-yl)methyl)-4-fluoro-N-phenylpiperidine-4-carboxamide] | 24900 nM | 443 fold | 56.1 nM
O=C(N(Cc1ccc(-c2nnc(C(F)F)o2)cn1)c1ccccc1)C1(F)CN(C2CCCCC2)C1 [Compound 2999, 1-cyclohexyl-N-((5-(5-(difluoromethyl)-1,3,4-oxadiazol-2-yl)pyridin-2-yl)methyl)-3-fluoro-N-phenylazetidine-3-carboxamide] | > 50000 nM | 801 fold | 62.4 nM
O=C(N(Cc1ccc(-c2nnc(C(F)F)o2)cn1)c1ccccc1)C1(F)CN(C2CCOCC2)C1 [Compound 3000, N-((5-(5-(difluoromethyl)-1,3,4-oxadiazol-2-yl)pyridin-2-yl)methyl)-3-fluoro-N-phenyl-1-(tetrahydro-2H-pyran-4-yl)azetidine-3-carboxamide] | > 50000 nM | 1,157 fold | 43.2 nM
CCN1CC(F)(C(=O)N(Cc2ccc(-c3nnc(C(F)F)o3)cn2)c2ccccc2)C1 [Compound 3001, N-((5-(5-(difluoromethyl)-1,3,4-oxadiazol-2-yl)pyridin-2-yl)methyl)-1-ethyl-3-fluoro-N-phenylazetidine-3-carboxamide] | > 50000 nM | 1,000 fold | 50 nM
CCCN1CC(F)(C(=O)N(Cc2ccc(-c3nnc(C(F)F)o3)cn2)c2ccccc2)C1 [Compound 3002, N-((5-(5-(difluoromethyl)-1,3,4-oxadiazol-2-yl)pyridin-2-yl)methyl)-3-fluoro-N-phenyl-1-propylazetidine-3-carboxamide] | > 50000 nM | 943 fold | 53 nM
CCCCN1CC(F)(C(=O)N(Cc2ccc(-c3nnc(C(F)F)o3)cn2)c2ccccc2)C1 [Compound 3003, 1-butyl-N-((5-(5-(difluoromethyl)-1,3,4-oxadiazol-2-yl)pyridin-2-yl)methyl)-3-fluoro-N-phenylazetidine-3-carboxamide] | 27500 nM | 735 fold | 37.4 nM
CC(C)CN1CC(F)(C(=O)N(Cc2ccc(-c3nnc(C(F)F)o3)cn2)c2ccccc2)C1 [Compound 3004, N-((5-(5-(difluoromethyl)-1,3,4-oxadiazol-2-yl)pyridin-2-yl)methyl)-3-fluoro-1-isobutyl-N-phenylazetidine-3-carboxamide] | 26100 nM | 917 fold | 28.4 nM
CN(C)CCC(=O)N1CC(F)(C(=O)N(Cc2ccc(-c3nnc(C(F)F)o3)cn2)c2ccccc2)C1 [Compound 3006, N-((5-(5-(difluoromethyl)-1,3,4-oxadiazol-2-yl)pyridin-2-yl)methyl)-1-(3-(dimethylamino)propanoyl)-3-fluoro-N-phenylazetidine-3-carboxamide] | > 50000 nM | 2,032 fold | 24.6 nM
CN(C)CCCC(=O)N1CC(F)(C(=O)N(Cc2ccc(-c3nnc(C(F)F)o3)cn2)c2ccccc2)C1 [Compound 3007, N-((5-(5-(difluoromethyl)-1,3,4-oxadiazol-2-yl)pyridin-2-yl)methyl)-1-(4-(dimethylamino)butanoyl)-3-fluoro-N-phenylazetidine-3-carboxamide] | > 50000 nM | 1,945 fold | 25.7 nM
CN1CC(F)(C(=O)N(Cc2ccc(-c3nnc(C(F)F)o3)cn2)c2cccc(F)c2)C1 [Compound 3047, N-((5-(5-(difluoromethyl)-1,3,4-oxadiazol-2-yl)pyridin-2-yl)methyl)-3-fluoro-N-(3-fluorophenyl)-1-methylazetidine-3-carboxamide] | 20800 nM | 242 fold | 85.7 nM
CC(C)N1CC(F)(C(=O)N(Cc2ccc(-c3nnc(C(F)F)o3)cn2)c2cccc(F)c2)C1 [Compound 3048, N-((5-(5-(difluoromethyl)-1,3,4-oxadiazol-2-yl)pyridin-2-yl)methyl)-3-fluoro-N-(3-fluorophenyl)-1-isopropylazetidine-3-carboxamide] | 18500 nM | 237 fold | 78 nM
